Reference: patent US8952024B2, “Herbicidal pyrimidone derivatives” (E I du Pont de Nemours and Company, priority 2009, dated 2015)

Legend:
Type in all cases: in vivo
[1] = test system: chickweed (Stellaria media); test: Test B postemergence plant response; details: Postemergence
How it was run: (§1)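 Plants at the 1- to 4-leaf stage (2 to 18 cm tall), grown in pots of peat moss/vermiculite medium with wetting agent and starter nutrients, received postemergence applications of test chemicals. After 13 to 15 days in a greenhouse, injury was rated visually against untreated controls on a 0 (no effect) to 100 (complete control) scale.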

[2] = test system: canarygrass (Phalaris minor); test: Test B postemergence plant response; details: Postemergence
How it was run: as §1

[3] = test system: windgrass (Apera spica-venti); test: Test B postemergence plant response; details: Postemergence
How it was run: as §1

[4] = test system: winter barley (Hordeum vulgare); test: Test B postemergence plant response; details: Postemergence
How it was run: as §1

[5] = test system: velvetleaf (Abutilon theophrasti); test: Test A pre-/postemergence plant response; details: for Velvetleaf plant response rating: visual injury, 0 to 100 scale (0 no effect, 100 complete control), approx. ten days
How it was run: (§2)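 Each species was treated preemergence via directed soil spray and postemergence at the one- to two-leaf stage, with compounds formulated in a non-phytotoxic solvent plus surfactant. Visual injury relative to untreated controls was rated after about ten days on a 0–100 scale.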

[6] = test system: giant foxtail (Setaria faberii); test: Test A pre-/postemergence plant response; details: for Foxtail, Giant plant response rating: visual injury, 0 to 100 scale (0 no effect, 100 complete control), approx. ten days
How it was run: as §2

[7] = test system: morningglory (Ipomoea spp.); test: Test A pre-/postemergence plant response; details: for Morningglory plant response rating: visual injury, 0 to 100 scale (0 no effect, 100 complete control), approx. ten days
How it was run: as §2

[8] = test system: pigweed (Amaranthus retroflexus); test: Test A pre-/postemergence plant response; details: for Pigweed plant response rating: visual injury, 0 to 100 scale (0 no effect, 100 complete control), approx. ten days
How it was run: as §2

[9] = test system: wheat (Triticum aestivum); test: Test A pre-/postemergence plant response; details: for Wheat plant response rating: visual injury, 0 to 100 scale (0 no effect, 100 complete control), approx. ten days
How it was run: as §2

[10] = test system: barnyardgrass (Echinochloa crus-galli); test: Test A pre-/postemergence plant response; details: for Barnyardgrass plant response rating: visual injury, 0 to 100 scale (0 no effect, 100 complete control), approx. ten days
How it was run: as §2

corn (Zea mays) = test: Test A pre-/postemergence plant response; details: for Corn plant response rating: visual injury, 0 to 100 scale (0 no effect, 100 complete control), approx. ten days
How it was run: as §2

[11] = test system: large crabgrass (Digitaria sanguinalis); test: Test A pre-/postemergence plant response; details: for Crabgrass, Large plant response rating: visual injury, 0 to 100 scale (0 no effect, 100 complete control), approx. ten days
How it was run: as §2

[12] = 31 g ai/ha, 0 to 100 scale (0 no effect, 100 complete control)
[13] = 62 g ai/ha, scale 0 to 100 (0 no effect, 100 complete control)
[14] = 125 g ai/ha, scale 0 to 100 (0 no effect, 100 complete control)
[15] = Postemergence, 125 g ai/ha, 0 to 100 scale where 0 is no effect and 100 is complete control
[16] = Preemergence, 125 g ai/ha, 0 to 100 scale, 0 = no effect, 100 = complete control
[17] = Preemergence, 500 g ai/ha, 0 to 100 scale, 0 = no effect, 100 = complete control
[18] = 250 g ai/ha, scale 0 to 100 (0 no effect, 100 complete control), 13 to 15 days

CC1(C)CC(=O)C(C(=O)c2cnc(-c3ccccc3)n(-c3ccccc3)c2=O)=C(O)C1 [Compound 225]
85: Plant response rating, Canarygrass [2, 13] | Plant response rating, Canarygrass [2, 14]
50: Plant response rating, Windgrass [3, 12] | Corn plant response rating (corn (Zea mays); Postemergence, 500 g ai/ha)
0: Plant response rating, Wheat [9, 15] | Plant response rating, Wheat [9, 16] | Plant response rating, Corn (corn (Zea mays); [16])
95: Plant response rating, Chickweed [1, 14]
60: Plant response rating, Canarygrass [2, 12] | Plant response rating, Crabgrass, Large [11, 16]
15: Plant response rating, Chickweed ([1]; 16 g ai/ha, 0 to 100 scale)
80: Plant response rating, Velvetleaf [5, 16] | Plant response rating, Foxtail, Giant [6, 17] | Plant response rating, Morningglory [7, 17]
25: Plant response rating, Chickweed [1, 12]
35: Plant response rating, Barley [4, 13]
40: Plant response rating, Chickweed [1, 13] | Plant response rating, Barley [4, 14] | Plant response rating, Foxtail, Giant [6, 16] | Wheat plant response rating ([9]; Postemergence, 500 g ai/ha)
5: Plant response rating, Windgrass ([3]; 16 g ai/ha, 0 to 100 scale) | Plant response rating, Barley ([4]; 16 g ai/ha, 0 to 100 scale)
30: Plant response rating, Morningglory [7, 16] | Plant response rating, Wheat [9, 17]
20: Plant response rating, Barley [4, 12] | Plant response rating, Barnyardgrass [10, 16] | Plant response rating, Corn (corn (Zea mays); [17])
90: Foxtail, Giant plant response rating ([6]; Postemergence, 500 g ai/ha) | Plant response rating, Pigweed [8, 16] | Plant response rating, Barnyardgrass [10, 15] | Plant response rating, Barnyardgrass [10, 17] | Plant response rating, Crabgrass, Large [11, 15]
10: Plant response rating, Corn (corn (Zea mays); [15])
70: Plant response rating, Foxtail, Giant [6, 15]
100: Plant response rating, Velvetleaf [5, 15] | Velvetleaf plant response rating ([5]; Postemergence, 500 g ai/ha) | Plant response rating, Velvetleaf [5, 17] | Plant response rating, Morningglory [7, 15] | Morningglory plant response rating ([7]; Postemergence, 500 g ai/ha) | Plant response rating, Pigweed [8, 15] | Pigweed plant response rating ([8]; Postemergence, 500 g ai/ha) | Plant response rating, Pigweed [8, 17] | Barnyardgrass plant response rating ([10]; Postemergence, 500 g ai/ha) | Crabgrass, Large plant response rating ([11]; Postemergence, 500 g ai/ha) | Plant response rating, Crabgrass, Large [11, 17]
55: Plant response rating, Canarygrass ([2]; 16 g ai/ha, 0 to 100 scale) | Plant response rating, Windgrass [3, 13]

CCCn1c(-c2ccsc2)ncc(C(=O)C2=C(O)C3CCC(C3)C2=O)c1=O (stereo not shown) [Compound 227]
50: Plant response rating, Windgrass [3, 18] | Plant response rating, Morningglory [7, 16] | Plant response rating, Barnyardgrass [10, 16]
90: Plant response rating, Chickweed [1, 18] | Plant response rating, Velvetleaf [5, 16] | Plant response rating, Foxtail, Giant [6, 15] | Foxtail, Giant plant response rating ([6]; Postemergence, 500 g ai/ha) | Plant response rating, Barnyardgrass [10, 15] | Barnyardgrass plant response rating ([10]; Postemergence, 500 g ai/ha) | Plant response rating, Crabgrass, Large [11, 15] | Plant response rating, Crabgrass, Large [11, 16]
60: Corn plant response rating (corn (Zea mays); Postemergence, 500 g ai/ha)
65: Plant response rating, Chickweed [1, 12]
40: Plant response rating, Foxtail, Giant [6, 16]
5: Plant response rating, Canarygrass [2, 14] | Plant response rating, Barley [4, 13] | Plant response rating, Barley [4, 14]
0: Plant response rating, Canarygrass [2, 12] | Plant response rating, Canarygrass [2, 13] | Plant response rating, Windgrass [3, 12] | Plant response rating, Barley [4, 12] | Plant response rating, Wheat [9, 15] | Wheat plant response rating ([9]; Postemergence, 500 g ai/ha) | Plant response rating, Wheat [9, 16] | Plant response rating, Corn (corn (Zea mays); [16])
30: Plant response rating, Windgrass [3, 13] | Plant response rating, Barley [4, 18]
75: Plant response rating, Chickweed [1, 13]
100: Plant response rating, Velvetleaf [5, 15] | Velvetleaf plant response rating ([5]; Postemergence, 500 g ai/ha) | Plant response rating, Velvetleaf [5, 17] | Plant response rating, Morningglory [7, 15] | Morningglory plant response rating ([7]; Postemergence, 500 g ai/ha) | Plant response rating, Pigweed [8, 15] | Pigweed plant response rating ([8]; Postemergence, 500 g ai/ha) | Plant response rating, Pigweed [8, 17] | Plant response rating, Barnyardgrass [10, 17] | Crabgrass, Large plant response rating ([11]; Postemergence, 500 g ai/ha) | Plant response rating, Crabgrass, Large [11, 17]
10: Plant response rating, Canarygrass [2, 18] | Plant response rating, Wheat [9, 17] | Plant response rating, Corn (corn (Zea mays); [15]) | Plant response rating, Corn (corn (Zea mays); [17])
80: Plant response rating, Chickweed [1, 14] | Plant response rating, Foxtail, Giant [6, 17] | Plant response rating, Morningglory [7, 17] | Plant response rating, Pigweed [8, 16]
